Measured values from patent US4767770A, “Method of inhibiting aromatase” (Eli Lilly and Company, priority 1984, dated 1988).

Assays:
[1] = system: DMBA-induced mammary tumors; assay: DMBA-induced Mammary Tumor Inhibition; format: in vivo, female Sprague-Dawley rats; conditions: Test II, 300 ppm in diet (approx. 30 mg/kg/day), 4 weeks
Experimental: Mammary tumors were produced in female Sprague-Dawley rats which were 50-60 days old by the gavage administration of 20 mg of 7,12-dimethylbenz[a]anthracene (DMBA). About six weeks after DMBA administration, the mammary glands were palpated at weekly intervals for the appearance of tumors. Whenever one or more tumors appeared and were measurable in an animal, that animal was selected for experimentation. […] Each control and test group contained 8 animals. The test compound was administered mixed into the food at a concentration of 300 ppm (corresponding to an appropriate daily dose of 30 mg/kg). Every experiment included a group of control rats having tumors and were given food without the compound admixed. […] The area of each tumor was calculated by multiplying the shortest and longest diameters of the tumor. The treatment and measurement of animals continued for 4-5 weeks at which time the final areas of the tumors were determined. For each compound (and control) at each dose level, the change in the mean tumor area was determined.
*dosed in the diet. 300 ppm corresponds to approximately 30 mg/kg/day.

[2] = system: estrogen synthesis (aromatization); uterus; assay: Estrogen Synthesis Inhibition in Rats: uterine weight of testosterone propionate-treated immature rats; format: in vivo, immature female Wistar rats; conditions: Test I, 7 days, value marked + (p < 0.05 vs testosterone-treated control, 211.5)
Experimental: Immature female Wistar rats (45-55 grams) were divided into control and test groups of 2-8 animals each. Test compounds were administered for seven days as a component of the diet. Control animals received diet without the test compound. Beginning on the fourth day of the test, all animals treated with the test compound and one half of the control animals were given a subcutaneous injection of 1.0 mg of testosterone propionate in corn oil. The remaining control animals received only an equivalent volume of corn oil. On the seventh day of the test, rats treated with testosterone propionate were injected subcutaneously with 100 μCi of [^3 H]-testosterone in 50 μl of 3:1 (v/v) saline-ethanol.
After two hours, the animals were killed by decapitation. Uteri were isolated, trimmed of extraneous connective tissue, and weighed. […] In the control animals treated with testosterone propionate, estrogens produced by aromatization stimulated the uterus resulting in an increase in weight.
*ppm in feed. 300 ppm corresponds to approximately 30 mg/kg/day; 200 ppm
corresponds to approximately 20 mg/kg/day; 30 ppm corresponds to
approximately 3 mg/kg/day.

aromatase = target: T1, aromatase (Rattus norvegicus, UniProt P22443); assay: biochemical
T1 sequence (P22443 1-508): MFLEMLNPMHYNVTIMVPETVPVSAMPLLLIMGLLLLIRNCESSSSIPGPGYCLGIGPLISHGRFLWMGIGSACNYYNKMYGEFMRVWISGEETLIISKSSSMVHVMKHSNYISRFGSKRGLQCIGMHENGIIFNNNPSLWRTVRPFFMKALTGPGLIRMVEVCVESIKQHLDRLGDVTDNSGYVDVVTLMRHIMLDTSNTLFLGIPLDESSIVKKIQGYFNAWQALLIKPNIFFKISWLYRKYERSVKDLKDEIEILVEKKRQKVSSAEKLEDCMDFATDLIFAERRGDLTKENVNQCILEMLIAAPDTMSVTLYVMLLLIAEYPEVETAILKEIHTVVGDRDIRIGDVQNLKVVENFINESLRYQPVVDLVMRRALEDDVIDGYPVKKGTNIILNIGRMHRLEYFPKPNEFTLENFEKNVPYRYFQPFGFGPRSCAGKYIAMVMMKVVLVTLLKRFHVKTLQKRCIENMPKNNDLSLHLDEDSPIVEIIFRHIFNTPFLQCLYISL
Experimental: In this test system, ovarian microsomes are obtained from rats treated with pregnant mares serum gonadotropin. Test compounds are added to reaction vials containing 0.1 μM 4-androstene-3,17-dione, 100,000 dpm 1,2[^3 H]-androstenedione, the microsomes and a NADPH generating system. The concentrations of the inhibitors tested ranged between 0.005 and 10 μM.

[3] = system: estrogen synthesis (ovarian estradiol, estrone, estriol); assay: Estrogen Synthesis Inhibition in Rats: ovarian steroid concentration after [3H]-testosterone; format: in vivo, immature female Wistar rats; conditions: Test I, 7 days; for Mean Steroid Concentration, estrone: testosterone-treated control 0.10; for Mean Steroid Concentration, estriol: testosterone-treated control 0.24; for Mean Steroid Concentration, estradiol: testosterone-treated control 1.43
Experimental: Test compounds were administered for seven days as a component of the diet. Control animals received diet without the test compound. Beginning on the fourth day of the test, all animals treated with the test compound and one half of the control animals were given a subcutaneous injection of 1.0 mg of testosterone propionate in corn oil. The remaining control animals received only an equivalent volume of corn oil.
The ovarian steroids were extracted with 1.5 ml of 9:1 (v/v) toluene/ethanol to which had been added 25 to 100 mcg each of unlabelled estradiol, estriol, and estrone, and approximately 1000 dpm of [^14 C]-estradiol. The samples were vortexed, centrifuged at 500×g for 10 minutes, and the organic phase was transferred to a conical vial. Two additional extractions were performed on the residue in the same way. The pooled organic extracts were evaporated for subsequent thin-layer chromatography.
Ovarian proteins were precipitated by the addition of 5.0 ml of ethanol to the remaining aqueous phase. After an overnight incubation at 4° C., the samples were centrifuged at 1500×g for 10 minutes. The supernatant was discarded and the pellet was dissolved in 0.3N potassium hydroxide.
The organic residue from each above extraction was redissolved in 9:1 (v/v) dichloromethane/methanol. The solution of each sample was applied to separate silica gel thin layer chromatography plates which contained a fluorescent indicator. The plates were developed in the first dimension with 160:38:1.5:0.5 (v/v/v/v) dichloromethane/ethyl acetate/methanol/acetic acid to within 3 cm of the top of the plate. After air-drying, the plate was developed in the second dimension with 180:19:1 (v/v/v) dichloromethane/methanol/ammonium hydroxide.
The spots were scraped from the plate using a glass wool plugged Pasteur pipet attached to a vacuum line. The steroids were eluted directly into scintillation vials by the addition of 0.2 ml of dichloromethane followed by two washes each of 2.0 ml of methanol. The organic solvent was evaporated and 10.0 ml of scintillation fluid (Beckman Ready Solv-NA) was added to the vials. Samples were analyzed by liquid scintillation spectrometry. Corrections were made based on the recoveries of the [^14 C]-steroid. Steroid concentrations are expressed as femtomoles per milligram protein.

breast cancer = conditions: result in words; see Cancer Research, Vol. 42, Suppl. 8:3261s (1982); cited from earlier work
[4] = 30 ppm in feed (approx. 3 mg/kg/day)
[5] = 300 ppm in feed (approx. 30 mg/kg/day)

| SMILES | Mean Tumor Area, Start ([1]; baseline, control 62.8) | Mean Tumor Area, Finish ([1]; control 1087.0) | Mean Uterine Weight [2, 4] | Mean Uterine Weight [2, 5] | EC50 (aromatase) | Mean Steroid Concentration, estrone [3, 4] | Mean Steroid Concentration, estriol [3, 4] | Mean Steroid Concentration, estradiol [3, 4] | Mean Steroid Concentration, estrone [3, 5] | Mean Steroid Concentration, estriol [3, 5] | Mean Steroid Concentration, estradiol [3, 5] | effect in treatment of breast cancer (breast cancer) |
| --- | --- | --- | --- | --- | --- | --- | --- | --- | --- | --- | --- | --- |
| Clc1ccc(N(Cc2cccnc2)C2=NCCS2)cc1 [N--(4-chlorophenyl)-N--(4,5-dihydro-2-thiazolyl)-3-pyridinemethanamine] | 61.4 mm^2 | 464.0 mm^2 | 141.5 mg | 136.0 mg | 68 nM | 0.31 femtomoles per milligram of protein | 0.27 femtomoles per milligram of protein | 1.46 femtomoles per milligram of protein | 0.09 femtomoles per milligram of protein | 0.46 femtomoles per milligram of protein | 1.42 femtomoles per milligram of protein |  |
| CCC1(c2ccc(N)cc2)CCC(=O)NC1=O (stereo not shown) [aminoglutethimide] |  |  |  |  |  |  |  |  |  |  |  | beneficial effect in treatment of breast cancer |
| C[C@]12C=CC(=O)C=C1CC[C@@H]1[C@@H]2CC[C@]2(C)OC(=O)CC[C@@H]12 [testolactone] |  |  |  |  |  |  |  |  |  |  |  | beneficial effect in treatment of breast cancer |
